Converted amounts (≈) assume the structure as drawn.
Each compound was assayed on KB (assay: Cytotoxicity against human KB cells).
Assay type: functional, cell-based

Compound | IC50 [µg/mL]
COC(=O)/C1=C\[C@@H]2O[C@@]2(C(C)C)CC/C(C(=O)OC)=C/CC[C@]2(C)O[C@H]2CC1 | 5 (≈ 12.7 µM)
COC(=O)/C1=C\C=C(\C(C)C)CCC2=CCC[C@](C)(OC2=O)[C@@H](OC(C)=O)CC1 [EMBLIDE] | 5 (≈ 12.4 µM)
COC(=O)/C1=C/C=C(/C(C)C)CCC2=CCC[C@](C)(OC2=O)[C@H](OC(C)=O)CC1 [SARCRASSIN D] | 4 (≈ 9.89 µM)
COC(=O)/C1=C/C=C(/C(C)C)CCC2=CCC[C@](C)(OC2=O)C(=O)CC1 [SARCRASSIN E] | 13 (≈ 36.1 µM)

Source: ChEMBL document CHEMBL1158084, “Cytotoxic diterpenoids from the soft coral Sarcophyton crassocaule” (J Nat Prod, 2006)
